Assay [1] concerns AML cell lines (OCI-AML3, MV4-11, and U937). The experiment in a line: NK cell ADCC, annexin V binding, Incucyte, AML cell lines. It is filed as cell-based, human. How it is done: For live-cell apoptosis analysis, the inventors stained OCI-AML3, MV4-11, U937, and primary cells with CytoLight Red (#4482; Essen BioScience). […] Time-lapse fluorescence imaging was performed using an Incucyte live-cell imaging system (Essen BioScience) to assess apoptosis induction every 1 hour for 20-48 hours. The apoptosis in leukemic cells was measured by green and red overlap counts.
Rituximab is a chimeric anti-CD20 antibody that was used as a non-specific control antibody. NK cell-induced apoptosis was measured by annexin V binding assay using the Incucyte live-cell imaging system. […] Representative images of OCI-AML3 cells undergoing apoptosis at different time points in different treatment conditions are shown in FIG. 12A.

Assay [2] concerns BC cell lines (MCF7 and HCC38). The experiment in a line: NK cell-mediated ADCC in breast cancer cell lines. It is filed as cell-based, human. As to conditions: 10 μg/mL. The text has this:
Rituximab is a chimeric anti-CD20 antibody that was used as a nonspecific control antibody.

As to rituximab [reference compound], in assay [1] (1, 5, and 10 μg/mL, with NK cells, 8:1 ratio), the “apoptosis of leukemic cells (NK cell ADCC)” value is on record as “did not show significant outcomes”. Also, the “killing of leukemic cells, antibody alone, at 28 and 22 hours” value in assay [1] (antibody alone) is reported as “no effect on killing leukemic cells”. Moreover, the “apoptosis in BC cells (ADCC)” value in assay [2] (with NK cells, 15:1 NK-to-target cell ratio) is recorded as “did not show significant outcomes”. Also, in assay [2] (without NK cells), the “killing of BC cells, antibody alone, after 10 hours” value is on record as “did not affect the killing of BC cells”.

These data come from patent publication US20250230244A1, “METHODS AND COMPOSITIONS COMPRISING B7-H3 BINDING POLYPETIDES” (BOARD OF REGENTS, THE UNIVERSITY OF TEXAS SYSTEM, priority 2021, published 2025).
